Data published in patent US20240324531A1, “METHOD TO INCREASE POLLEN FERTILITY” (Keygene N.V., priority 2021, published 2024).
“Also recorded” adds a separate entry of the source.

Tested on: anthers of B. rapa x B. oleracea cross (F1)
Assay: Opening of anthers after treating immature flower buds of the AC hybrid
Format: in vivo, Brassica rapa x Brassica oleracea interspecific hybrid
Conditions: 20 nM; F1 of this cross normally does not form open anthers
From the text: Alternatively or in addition, preferably in the provided first seed plant, at least about 2%, 4%, 6%, 8%, 10%, 15%, 20%, 25%, 30%, 35%, 40%, 45%, 50%, 55%, 60%, 65%, 70%, 75%, 80%, 85%, 90%, 95% or 100% of the anthers remain closed upon pollen maturation. Preferably, less than about 95%, 90%, 85%, 80%, 75%, 70%, 65%, 60%, 55%, 50%, 45%, 40%, 35%, 30%, 25%, 20%, 15%, 10%, 8%, 6%, 4%, 2% or less than about 1% of the anthers open upon pollen maturation.

NC1=NC(=O)C(=Cc2ccc(O)cc2)S1 [Mirin, 2-Amino-5-[(4-hydroxyphenyl)methylene]-4(5H)-thiazolone]
opening of anthers: open anther; also recorded: opening of anthers
